Data on 2 compounds can be found in ChEMBL document CHEMBL1158915, “The Effect of Aridanin Isolated from Tetrapleuratetraptera and Serotonin on the Isolated Gastrointestinal Tract Smooth Muscles of Biomphalaria glabrata and Uptake of Calcium” (1990).

For experiment [1], the system named is Biomphalaria glabrata. Kind of experiment: Effect on Biomphalaria glabrata intestinal rhythmicity assessed as tissue contraction in presence of 8.5 to 320 nM cyproheptadine. It is filed as functional, tissue-based. Particulars: Intestine.
For experiment [2], the system named is Esophagus. Kind of experiment: Effect on Biomphalaria glabrata esophageal rhythmicity assessed as increase in contraction at 1.0 x 10^-7 to 9.6 x 10^-6 M. It is filed as functional.
Experiment [3] has as its system Esophagus. Kind of experiment: Effect on Biomphalaria glabrata esophageal rhythmicity assessed as increase in phasic contraction in relaxation phase at 1.92 x 10^-8 to 4 x 10^-7 M. It is filed as functional, tissue-based.
In experiment [4] the test system is Esophagus. Kind of experiment: Effect on Biomphalaria glabrata esophageal rhythmicity assessed as tissue contraction in presence of 8.5 to 320 nM methysergide. It is filed as functional, tissue-based.
The test system of experiment [5] is Esophagus. Kind of experiment: Effect on Biomphalaria glabrata esophageal rhythmicity assessed as tissue contraction in presence of 8.5 to 320 nM cyproheptadine. It is filed as functional, tissue-based.
Experiment [6] has as its system Biomphalaria glabrata. Kind of experiment: Effect on Biomphalaria glabrata intestinal rhythmicity assessed as increase in contraction at 1.2 x 10^-6 to 1.9 x 10^-5 M. It is filed as functional, tissue-based. Particulars: Intestine.
Experiment [7] concerns Biomphalaria glabrata. Kind of experiment: Effect on Biomphalaria glabrata intestinal rhythmicity assessed as tissue contraction in presence of 8.5 to 320 nM methysergide. It is filed as functional, tissue-based. The conditions noted are these: Intestine.
Experiment [8] concerns Esophagus. Kind of experiment: Effect on Biomphalaria glabrata esophageal rhythmicity assessed as potentiation in amplitude of contraction at 4.8 x 10^-10 M. It is filed as functional, tissue-based.
The test system of experiment [9] is Biomphalaria glabrata. Kind of experiment: Effect on Biomphalaria glabrata intestinal rhythmicity assessed as potentiation in amplitude of contraction at 4.8 x 10^-10 M. It is filed as functional, tissue-based. The conditions noted are these: Intestine.
For experiment [10], the system named is Biomphalaria glabrata. Kind of experiment: Inhibition of calcium uptake in Biomphalaria glabrata assessed as available calcium in test solution at 0.25 ppm after 10 weeks. It is filed as functional.
The subject of experiment [11] is Biomphalaria glabrata. Kind of experiment: Effect on Biomphalaria glabrata intestinal rhythmicity assessed as potentiation of tissue contracture in presence of 1 to 100 nM cyproheptadine. Particulars: Intestine. It is filed as functional, tissue-based.
The subject of experiment [12] is Biomphalaria glabrata. Kind of experiment: Inhibition of calcium uptake in Biomphalaria glabrata assessed as available calcium in test solution at 0.25 ppm after 1 week. It is filed as functional.
The subject of experiment [13] is Esophagus. Kind of experiment: Effect on Biomphalaria glabrata esophageal rhythmicity assessed as potentiation of tissue contracture in presence of 1 to 100 nM methysergide. It is filed as functional, tissue-based.
The test system of experiment [14] is Biomphalaria glabrata. Kind of experiment: Inhibition of calcium uptake in Biomphalaria glabrata assessed as available calcium in test solution at 0.25 ppm after 5 weeks. It is filed as functional.
For experiment [15], the system named is Biomphalaria glabrata. Kind of experiment: Effect on Biomphalaria glabrata intestinal rhythmicity assessed as potentiation of tissue contracture in presence of 1 uM atropine. It is filed as functional, tissue-based. Particulars: Intestine.
Experiment [16] deals with Biomphalaria glabrata. Kind of experiment: Inhibition of calcium uptake in Biomphalaria glabrata assessed as available calcium in test solution at 0.125 ppm after 8 weeks. It is filed as functional.
The subject of experiment [17] is Biomphalaria glabrata. Kind of experiment: Inhibition of calcium uptake in Biomphalaria glabrata assessed as available calcium in test solution at 0.125 ppm after 6 weeks. It is filed as functional.
The test system of experiment [18] is Biomphalaria glabrata. Kind of experiment: Effect on Biomphalaria glabrata intestinal rhythmicity assessed as potentiation of tissue contracture in presence of 10 uM propranolol. It is filed as functional, tissue-based. Particulars: Intestine.
Experiment [19] deals with Biomphalaria glabrata. Kind of experiment: Inhibition of calcium uptake in Biomphalaria glabrata assessed as available calcium in test solution at 0.125 ppm after 9 weeks. It is filed as functional.
Experiment [20] concerns Esophagus. Kind of experiment: Effect on Biomphalaria glabrata esophageal rhythmicity assessed as potentiation of tissue contracture in presence of 0.1 uM verapamil. It is filed as functional.
The subject of experiment [21] is Biomphalaria glabrata. Kind of experiment: Inhibition of calcium uptake in Biomphalaria glabrata assessed as available calcium in test solution at 0.25 ppm after 4 weeks. It is filed as functional.
Experiment [22] deals with Biomphalaria glabrata. Kind of experiment: Inhibition of calcium uptake in Biomphalaria glabrata assessed as available calcium in test solution at 0.125 ppm after 2 weeks. It is filed as functional.
Experiment [23] relates to Esophagus. Kind of experiment: Effect on Biomphalaria glabrata esophageal rhythmicity assessed as potentiation of tissue contracture in presence of 10 uM propranolol. It is filed as functional, tissue-based.
The test system of experiment [24] is Biomphalaria glabrata. Kind of experiment: Inhibition of calcium uptake in Biomphalaria glabrata assessed as available calcium in test solution at 0.125 ppm after 1 week. It is filed as functional.
Experiment [25] relates to Biomphalaria glabrata. Kind of experiment: Inhibition of calcium uptake in Biomphalaria glabrata assessed as available calcium in test solution at 0.25 ppm after 2 weeks. It is filed as functional.
In experiment [26] the test system is Esophagus. Kind of experiment: Effect on Biomphalaria glabrata esophageal rhythmicity assessed as potentiation of tissue contracture in presence of 1 uM atropine. It is filed as functional, tissue-based.
Experiment [27] deals with Esophagus. Kind of experiment: Effect on Biomphalaria glabrata esophageal rhythmicity assessed as potentiation of tissue contracture in presence of 1 to 100 nM cyproheptadine. It is filed as functional, tissue-based.
Experiment [28] has as its system Biomphalaria glabrata. Kind of experiment: Inhibition of calcium uptake in Biomphalaria glabrata assessed as available calcium in test solution at 0.125 ppm after 7 weeks. It is filed as functional.
Experiment [29] deals with Biomphalaria glabrata. Kind of experiment: Inhibition of calcium uptake in Biomphalaria glabrata assessed as available calcium in test solution at 0.25 ppm after 8 weeks. It is filed as functional.
Experiment [30] deals with Biomphalaria glabrata. Kind of experiment: Inhibition of calcium uptake in Biomphalaria glabrata assessed as available calcium in test solution at 0.25 ppm after 3 weeks. It is filed as functional.
In experiment [31] the test system is Esophagus. Kind of experiment: Effect on Biomphalaria glabrata esophageal rhythmicity assessed as enhanced tissue contracture at 4.0 x 10^-7 to 3 x 10^-6 M. It is filed as functional, tissue-based.
The test system of experiment [32] is Esophagus. Kind of experiment: Effect on Biomphalaria glabrata esophageal rhythmicity assessed as potentiation of tissue contracture in presence of 0.1 mM lanthanum. It is filed as functional, tissue-based.
In experiment [33] the test system is Biomphalaria glabrata. Kind of experiment: Inhibition of calcium uptake in Biomphalaria glabrata assessed as available calcium in test solution at 0.25 ppm after 9 weeks. It is filed as functional.
The subject of experiment [34] is Biomphalaria glabrata. Kind of experiment: Effect on Biomphalaria glabrata intestinal rhythmicity assessed as potentiation of tissue contracture in presence of 1 to 100 nM methysergide. It is filed as functional, tissue-based. Particulars: Intestine.
Experiment [35] concerns Biomphalaria glabrata. Kind of experiment: Inhibition of calcium uptake in Biomphalaria glabrata assessed as available calcium in test solution at 0.125 ppm after 5 weeks. It is filed as functional.
Experiment [36] deals with Biomphalaria glabrata. Kind of experiment: Effect on Biomphalaria glabrata intestinal rhythmicity assessed as potentiation of tissue contracture in presence of 0.1 uM verapamil. It is filed as functional, tissue-based. Particulars: Intestine.
Experiment [37] deals with Biomphalaria glabrata. Kind of experiment: Effect on Biomphalaria glabrata intestinal rhythmicity assessed as enhanced tissue contracture at 4.0 x 10^-7 to 3 x 10^-6 M. It is filed as functional, tissue-based. Particulars: Intestine.
The subject of experiment [38] is Biomphalaria glabrata. Kind of experiment: Inhibition of calcium uptake in Biomphalaria glabrata assessed as available calcium in test solution at 0.125 ppm after 10 weeks. It is filed as functional.
Experiment [39] deals with Biomphalaria glabrata. Kind of experiment: Inhibition of calcium uptake in Biomphalaria glabrata assessed as available calcium in test solution at 0.25 ppm after 6 weeks. It is filed as functional.
The subject of experiment [40] is Biomphalaria glabrata. Kind of experiment: Inhibition of calcium uptake in Biomphalaria glabrata assessed as available calcium in test solution at 0.125 ppm after 3 weeks. It is filed as functional.
The subject of experiment [41] is Biomphalaria glabrata. Kind of experiment: Effect on Biomphalaria glabrata intestinal rhythmicity assessed as potentiation of tissue contracture in presence of 0.1 mM lanthanum. It is filed as functional, tissue-based. Particulars: Intestine.
The test system of experiment [42] is Biomphalaria glabrata. Kind of experiment: Inhibition of calcium uptake in Biomphalaria glabrata assessed as available calcium in test solution at 0.125 ppm after 4 weeks. It is filed as functional.
Experiment [43] deals with Biomphalaria glabrata. Kind of experiment: Inhibition of calcium uptake in Biomphalaria glabrata assessed as available calcium in test solution at 0.25 ppm after 7 weeks. It is filed as functional.

The structures appear in SMILES notation. The source made the active and inactive calls. No cut-off for these calls is given here.

Regarding `NCCc1c[nH]c2ccc(O)cc12`, the result in experiment [1], in experiment [4], in experiment [5] and in [7] was inactive. Also, the result in experiment [2], in experiment [3], in experiment [6], in [8] and in experiment [9] was Active.
Take `CC(=O)N[C@H]1[C@H](O[C@H]2CC[C@]3(C)[C@H]4CC=C5[C@H]6CC(C)(C)CC[C@]6(C(=O)O)CC[C@@]5(C)[C@]4(C)CC[C@H]3C2(C)C)O[C@H](CO)[C@@H](O)[C@@H]1O` [ARIDANIN]: the Activity is 90.4 ppm in experiment [10]; 28.3 ppm in experiment [12]; 19 ppm in experiment [14]; 49.8 ppm in [16]; 51.1 ppm in [17]; 69.6 ppm in experiment [19]. The Activity in [21] turned out to be 26.5 ppm; in experiment [22] it was 19.9 ppm; in experiment [24], 28.2 ppm; in experiment [25] it was 19.8 ppm; in experiment [28], 68.7 ppm; in experiment [29] it was 47.7 ppm. In addition, the Activity in experiment [30] is recorded as 24.2 ppm; in [33], 70.8 ppm; in experiment [35] it was 18.7 ppm; in [38], 89 ppm; in [39], 52.5 ppm; in experiment [40], 22.2 ppm. Besides, the results for the Activity in experiment [42] and in experiment [43] were 28.9 ppm and 73 ppm, respectively. In addition, the outcome in [11], in [20], in experiment [27], in experiment [32], in experiment [36] and in experiment [41] was inactive. The outcome in [13], in [15], in [18], in experiment [23], in experiment [26] and in experiment [31] was Active. The result in experiment [34] and in experiment [37] was Active.
